What was measured:
Phytophthora infestans = assay: whole plant or invertebrate; type: in vivo; details: in Solanum lycopersicum, foliar, 96 h, read-out: control of fungal infection, Phytophthora infestans
Plasmopara viticola = assay: Leaf disk assay, Plasmopara viticola (downy mildew of grapevine), preventive; type: in vivo; details: foliar, 168 h, grapevine leaf disks, assessed seven days after inoculation, read-out: control of fungal infection, Plasmopara viticola
[1] = system: Erysiphe graminis f.sp. tritici; assay: Leaf disk assay, Erysiphe graminis f.sp. tritici (wheat powdery mildew), preventive; type: in vivo; details: Blumeria graminis, foliar, 96 h, wheat leaf segments, assessed four days after inoculation, read-out: control of fungal infection, Erysiphe graminis f.sp. tritici
Procedure: The compounds were tested in a leaf disk assay, with methods described below. The test compounds were dissolved in DMSO and diluted into water to 200 ppm. In the case of the test on Pythium ultimum, they were dissolved in DMSO and diluted into water to 20 […] graminis f.sp. tritici (wheat powdery mildew): Wheat leaf segments were placed on agar in a 24-well plate and sprayed with a solution of the test compound. After allowing to dry completely, for between 12 and 24 hours, the leaf disks were inoculated with a spore suspension of the fungus. After appropriate incubation the activity of a compound was assessed four days after inoculation as preventive fungicidal activity.

[2] = system: Puccinia recondita f.sp. tritici; assay: Leaf disk assay, Puccinia recondita f.sp. tritici (wheat brown rust), preventive; type: in vivo; details: foliar, 216 h, wheat leaf segments, assessed nine days after inoculation, read-out: control of fungal infection, Puccinia recondita f.sp. tritici
Septoria tritici = assay: Growth inhibition in nutrient broth, Septoria tritici (leaf blotch), photometric; type: cell-based; details: Zymoseptoria tritici, PDB broth, 24 C, 72 hrs, read-out: control of fungal infection, Septoria tritici
Fusarium culmorum = assay: Growth inhibition in nutrient broth, Fusarium culmorum (root rot), photometric; type: cell-based; details: 48 h, read-out: control of fungal infection, Fusarium culmorum
Procedure: The compounds were tested in a leaf disk assay, with methods described below. The test compounds were dissolved in DMSO and diluted into water to 200 ppm. In the case of the test on Pythium ultimum, they were dissolved in DMSO and diluted into water to 20 ppm.
Fusarium culmorum (root rot): Conidia of the fungus from cryogenic storage were directly mixed into nutrient broth (PDB potato dextrose broth). After placing a (DMSO) solution of the test compounds into a microtiter plate (96-well format) the nutrient broth containing the fungal spores was added. The test plates were incubated at 24 C and the inhibition of growth was determined photometrically after 48 hrs.

Pythium ultimum = assay: Growth inhibition in potato dextrose broth, Pythium ultimum (damping off), photometric; type: cell-based; details: Globisporangium ultimum, 24° C., 48 hours, read-out: control of fungal infection, Pythium ultimum
Procedure: The compounds were tested in a leaf disk assay, with methods described below. The test compounds were dissolved in DMSO and diluted into water to 200 ppm. In the case of the test on Pythium ultimum, they were dissolved in DMSO and diluted into water to 20 ppm. Pythium ultimum (Damping off): Mycelial fragments of the fungus, prepared from a fresh liquid culture, were mixed into potato dextrose broth. A solution of the test compound in dimethyl sulphoxide was diluted with water to 20 ppm then placed into a 96-well microtiter plate and the nutrient broth containing the fungal spores was added. The test plate was incubated at 24° C. and the inhibition of growth was determined photometrically after 48 hours.

Septoria nodorum = assay: Leaf disk assay, Septoria nodorum (wheat glume blotch), preventive; type: in vivo; details: Parastagonospora nodorum, foliar, 96 h, wheat leaf segments, assessed four days after inoculation, read-out: control of fungal infection, Septoria nodorum

COCC#Cc1cnc2ccc(OC(SC)C(=O)NC(C)(C)C)cc2c1 (centres unmarked) [Example 42]
≥ 60%: pest or weed control at 200 ppm (Phytophthora infestans) | pest or weed control at 200 ppm (Plasmopara viticola) | pest or weed control at 200 ppm [1] | pest or weed control at 200 ppm [2] | inhibition of growth at 60 ppm (Septoria tritici) | inhibition of growth at 60 ppm (Fusarium culmorum) | inhibition of growth at 20 ppm (Pythium ultimum)

CC#Cc1cnc2ccc(OC(SC)C(=O)NC(C)(C)C)cc2c1 (centres unmarked) [Example 54]
≥ 60%: pest or weed control at 200 ppm (Phytophthora infestans) | pest or weed control at 200 ppm (Plasmopara viticola) | pest or weed control at 200 ppm [1] | pest or weed control at 200 ppm (Septoria nodorum) | inhibition of growth at 60 ppm (Septoria tritici) | inhibition of growth at 60 ppm (Fusarium culmorum) | inhibition of growth at 20 ppm (Pythium ultimum)

C#CC(C)(C)NC(=O)C(Oc1ccc2ncc(C#CC)cc2c1)SC (centres unmarked) [Example 57]
≥ 60%: pest or weed control at 200 ppm (Phytophthora infestans) | pest or weed control at 200 ppm (Plasmopara viticola) | pest or weed control at 200 ppm (Septoria nodorum) | inhibition of growth at 60 ppm (Septoria tritici) | inhibition of growth at 60 ppm (Fusarium culmorum)

C#Cc1cnc2ccc(OC(SC)C(=O)NC(C)(C)C=O)cc2c1 (centres unmarked) [Example 61]
≥ 60%: pest or weed control at 200 ppm (Phytophthora infestans) | pest or weed control at 200 ppm (Plasmopara viticola) | pest or weed control at 200 ppm [1] | pest or weed control at 200 ppm [2] | inhibition of growth at 60 ppm (Septoria tritici) | inhibition of growth at 60 ppm (Fusarium culmorum) | inhibition of growth at 20 ppm (Pythium ultimum)

C#Cc1cnc2ccc(OC(OC)C(=O)NC(C)(C)C)cc2c1 (centres unmarked) [Example 87]
≥ 60%: pest or weed control at 200 ppm (Phytophthora infestans) | pest or weed control at 200 ppm (Plasmopara viticola) | pest or weed control at 200 ppm [1] | pest or weed control at 200 ppm [2] | pest or weed control at 200 ppm (Septoria nodorum) | inhibition of growth at 60 ppm (Septoria tritici) | inhibition of growth at 60 ppm (Fusarium culmorum)

C#Cc1cnc2ccc(OC(SC)C(=O)NCC)cc2c1 (centres unmarked) [Example 97]
≥ 60%: pest or weed control at 200 ppm (Phytophthora infestans) | pest or weed control at 200 ppm (Plasmopara viticola) | pest or weed control at 200 ppm [1] | pest or weed control at 200 ppm [2] | pest or weed control at 200 ppm (Septoria nodorum) | inhibition of growth at 60 ppm (Septoria tritici) | inhibition of growth at 60 ppm (Fusarium culmorum) | inhibition of growth at 20 ppm (Pythium ultimum)

C#Cc1cnc2ccc(OC(SC)C(=O)NC(C)C)cc2c1 (centres unmarked) [Example 98]
≥ 60%: pest or weed control at 200 ppm (Phytophthora infestans) | pest or weed control at 200 ppm (Plasmopara viticola) | pest or weed control at 200 ppm [1] | pest or weed control at 200 ppm [2] | pest or weed control at 200 ppm (Septoria nodorum) | inhibition of growth at 60 ppm (Septoria tritici) | inhibition of growth at 60 ppm (Fusarium culmorum) | inhibition of growth at 20 ppm (Pythium ultimum)

C#Cc1cnc2cc(F)c(OC(SC)C(=O)NC(C)(C)C#CC)cc2c1 (centres unmarked) [Example 107]
≥ 60%: pest or weed control at 200 ppm (Phytophthora infestans) | pest or weed control at 200 ppm (Plasmopara viticola) | pest or weed control at 200 ppm [1] | pest or weed control at 200 ppm [2] | pest or weed control at 200 ppm (Septoria nodorum) | inhibition of growth at 60 ppm (Septoria tritici) | inhibition of growth at 60 ppm (Fusarium culmorum)

C#Cc1cnc2ccc(OC(CC)C(=O)NC(C)(C)CO)cc2c1 (centres unmarked) [Example 110]
≥ 60%: pest or weed control at 200 ppm (Phytophthora infestans) | pest or weed control at 200 ppm [1] | pest or weed control at 200 ppm (Septoria nodorum) | inhibition of growth at 60 ppm (Septoria tritici) | inhibition of growth at 60 ppm (Fusarium culmorum) | inhibition of growth at 20 ppm (Pythium ultimum)

C#Cc1cnc2c(C)cc(OC(CC)C(=O)NC(C)(C)CO)cc2c1 (centres unmarked) [Example 111]
≥ 60%: pest or weed control at 200 ppm (Phytophthora infestans) | pest or weed control at 200 ppm (Plasmopara viticola) | pest or weed control at 200 ppm [1] | pest or weed control at 200 ppm (Septoria nodorum) | inhibition of growth at 60 ppm (Septoria tritici) | inhibition of growth at 60 ppm (Fusarium culmorum) | inhibition of growth at 20 ppm (Pythium ultimum)

C#Cc1cnc2ccc(OC(OC)C(=O)NC(C)(C)C#C)cc2c1 (centres unmarked) [Example 124]
≥ 60%: pest or weed control at 200 ppm (Phytophthora infestans) | pest or weed control at 200 ppm (Plasmopara viticola) | pest or weed control at 200 ppm [1] | pest or weed control at 200 ppm (Septoria nodorum) | inhibition of growth at 60 ppm (Septoria tritici) | inhibition of growth at 60 ppm (Fusarium culmorum) | inhibition of growth at 20 ppm (Pythium ultimum)

C#Cc1cnc2ccc(OC(OC)C(=O)NC(C)(C)C#CCOC)cc2c1 (centres unmarked) [Example 125]
≥ 60%: pest or weed control at 200 ppm (Phytophthora infestans) | pest or weed control at 200 ppm (Plasmopara viticola) | pest or weed control at 200 ppm [1] | inhibition of growth at 60 ppm (Septoria tritici) | inhibition of growth at 60 ppm (Fusarium culmorum) | inhibition of growth at 20 ppm (Pythium ultimum)

C#CCOCC(C)(C)NC(=O)C(OC)Oc1ccc2ncc(C#C)cc2c1 (centres unmarked) [Example 127]
≥ 60%: pest or weed control at 200 ppm (Phytophthora infestans) | pest or weed control at 200 ppm (Plasmopara viticola) | pest or weed control at 200 ppm [1] | pest or weed control at 200 ppm [2] | pest or weed control at 200 ppm (Septoria nodorum) | inhibition of growth at 60 ppm (Septoria tritici) | inhibition of growth at 60 ppm (Fusarium culmorum) | inhibition of growth at 20 ppm (Pythium ultimum)

CSC(Oc1ccc2ncc(C#CCCl)cc2c1)C(=O)NC(C)(C)C (centres unmarked) [Example 143]
≥ 60%: pest or weed control at 200 ppm [2] | pest or weed control at 200 ppm (Septoria nodorum) | inhibition of growth at 60 ppm (Septoria tritici) | inhibition of growth at 60 ppm (Fusarium culmorum) | inhibition of growth at 20 ppm (Pythium ultimum)

C#Cc1cnc2ccc(OC(SC)C(=O)NC(C)(C#C)C#C)cc2c1 (centres unmarked) [Example 159]
≥ 60%: pest or weed control at 200 ppm (Phytophthora infestans) | pest or weed control at 200 ppm (Plasmopara viticola) | pest or weed control at 200 ppm [1] | pest or weed control at 200 ppm [2] | pest or weed control at 200 ppm (Septoria nodorum) | inhibition of growth at 60 ppm (Septoria tritici) | inhibition of growth at 60 ppm (Fusarium culmorum) | inhibition of growth at 20 ppm (Pythium ultimum)

C#Cc1cnc2cc(F)c(OC(SC)C(=O)NC(C)C)cc2c1 (centres unmarked) [Example 181]
≥ 60%: pest or weed control at 200 ppm (Phytophthora infestans) | pest or weed control at 200 ppm (Plasmopara viticola) | pest or weed control at 200 ppm [1] | pest or weed control at 200 ppm [2] | pest or weed control at 200 ppm (Septoria nodorum) | inhibition of growth at 60 ppm (Septoria tritici) | inhibition of growth at 60 ppm (Fusarium culmorum) | inhibition of growth at 20 ppm (Pythium ultimum)

C#CCC(C)(C)NC(=O)C(Oc1cc2cc(C#C)cnc2cc1F)SC (centres unmarked) [Example 187]
≥ 60%: pest or weed control at 200 ppm (Phytophthora infestans) | pest or weed control at 200 ppm (Plasmopara viticola) | pest or weed control at 200 ppm [1] | pest or weed control at 200 ppm [2] | pest or weed control at 200 ppm (Septoria nodorum) | inhibition of growth at 60 ppm (Septoria tritici) | inhibition of growth at 60 ppm (Fusarium culmorum) | inhibition of growth at 20 ppm (Pythium ultimum)

C#Cc1cnc2cc(F)c(OC(SC)C(=O)NC(C)(C#C)CC)cc2c1 (centres unmarked) [Example 188]
≥ 60%: pest or weed control at 200 ppm (Phytophthora infestans) | pest or weed control at 200 ppm (Plasmopara viticola) | pest or weed control at 200 ppm [1] | pest or weed control at 200 ppm [2] | pest or weed control at 200 ppm (Septoria nodorum) | inhibition of growth at 60 ppm (Septoria tritici) | inhibition of growth at 60 ppm (Fusarium culmorum) | inhibition of growth at 20 ppm (Pythium ultimum)

C#Cc1cnc2cc(F)c(OC(SC)C(=O)NC(C)(C)C#CCCOC)cc2c1 (centres unmarked) [Example 189]
≥ 60%: pest or weed control at 200 ppm (Phytophthora infestans) | pest or weed control at 200 ppm (Plasmopara viticola) | pest or weed control at 200 ppm [1] | pest or weed control at 200 ppm [2] | pest or weed control at 200 ppm (Septoria nodorum) | inhibition of growth at 60 ppm (Septoria tritici) | inhibition of growth at 60 ppm (Fusarium culmorum) | inhibition of growth at 20 ppm (Pythium ultimum)

C#Cc1cnc2cc(F)c(OC(SC)C(=O)NC(C)(C)C#CCOCC)cc2c1 (centres unmarked) [Example 191]
≥ 60%: pest or weed control at 200 ppm (Phytophthora infestans) | pest or weed control at 200 ppm (Plasmopara viticola) | pest or weed control at 200 ppm [1] | pest or weed control at 200 ppm [2] | pest or weed control at 200 ppm (Septoria nodorum) | inhibition of growth at 60 ppm (Septoria tritici) | inhibition of growth at 60 ppm (Fusarium culmorum) | inhibition of growth at 20 ppm (Pythium ultimum)

C#Cc1cnc2ccc(OC(SC)C(=O)NCC#N)cc2c1 (centres unmarked) [Example 196]
≥ 60%: pest or weed control at 200 ppm (Phytophthora infestans) | pest or weed control at 200 ppm (Plasmopara viticola) | pest or weed control at 200 ppm [1] | pest or weed control at 200 ppm (Septoria nodorum) | inhibition of growth at 60 ppm (Septoria tritici) | inhibition of growth at 60 ppm (Fusarium culmorum) | inhibition of growth at 20 ppm (Pythium ultimum)

C#Cc1cnc2c(F)cc(OC(SC)C(=O)NC(C)(C)C)cc2c1 (centres unmarked) [Example 201]
≥ 60%: pest or weed control at 200 ppm (Phytophthora infestans) | pest or weed control at 200 ppm (Plasmopara viticola) | pest or weed control at 200 ppm [1] | pest or weed control at 200 ppm (Septoria nodorum) | inhibition of growth at 60 ppm (Septoria tritici) | inhibition of growth at 60 ppm (Fusarium culmorum) | inhibition of growth at 20 ppm (Pythium ultimum)

C#Cc1cnc2ccc(OC(SC)C(=O)NC(C#C)(CC)CC)cc2c1 (centres unmarked) [Example 207]
≥ 60%: pest or weed control at 200 ppm (Phytophthora infestans) | pest or weed control at 200 ppm (Plasmopara viticola) | pest or weed control at 200 ppm [1] | pest or weed control at 200 ppm [2] | inhibition of growth at 60 ppm (Fusarium culmorum) | inhibition of growth at 20 ppm (Pythium ultimum)

C#Cc1cnc2cc(F)c(OC(SC)C(=O)NC(C)(C=O)COC)cc2c1 (centres unmarked) [Example 210]
≥ 60%: pest or weed control at 200 ppm (Plasmopara viticola) | pest or weed control at 200 ppm [1] | pest or weed control at 200 ppm [2] | pest or weed control at 200 ppm (Septoria nodorum) | inhibition of growth at 60 ppm (Septoria tritici) | inhibition of growth at 60 ppm (Fusarium culmorum) | inhibition of growth at 20 ppm (Pythium ultimum)
